Assay results: BindingDB's records for doi:10.1016/s0960-894x(03)00129-x (Wyeth Research, 2003)

The compounds below were run against T1, Progesterone receptor (Rattus norvegicus, UniProt Q63449) (assay: Inhibitory progestational activity on oral administration in uterine C3 model).
T1 sequence (Q63449 whole entry): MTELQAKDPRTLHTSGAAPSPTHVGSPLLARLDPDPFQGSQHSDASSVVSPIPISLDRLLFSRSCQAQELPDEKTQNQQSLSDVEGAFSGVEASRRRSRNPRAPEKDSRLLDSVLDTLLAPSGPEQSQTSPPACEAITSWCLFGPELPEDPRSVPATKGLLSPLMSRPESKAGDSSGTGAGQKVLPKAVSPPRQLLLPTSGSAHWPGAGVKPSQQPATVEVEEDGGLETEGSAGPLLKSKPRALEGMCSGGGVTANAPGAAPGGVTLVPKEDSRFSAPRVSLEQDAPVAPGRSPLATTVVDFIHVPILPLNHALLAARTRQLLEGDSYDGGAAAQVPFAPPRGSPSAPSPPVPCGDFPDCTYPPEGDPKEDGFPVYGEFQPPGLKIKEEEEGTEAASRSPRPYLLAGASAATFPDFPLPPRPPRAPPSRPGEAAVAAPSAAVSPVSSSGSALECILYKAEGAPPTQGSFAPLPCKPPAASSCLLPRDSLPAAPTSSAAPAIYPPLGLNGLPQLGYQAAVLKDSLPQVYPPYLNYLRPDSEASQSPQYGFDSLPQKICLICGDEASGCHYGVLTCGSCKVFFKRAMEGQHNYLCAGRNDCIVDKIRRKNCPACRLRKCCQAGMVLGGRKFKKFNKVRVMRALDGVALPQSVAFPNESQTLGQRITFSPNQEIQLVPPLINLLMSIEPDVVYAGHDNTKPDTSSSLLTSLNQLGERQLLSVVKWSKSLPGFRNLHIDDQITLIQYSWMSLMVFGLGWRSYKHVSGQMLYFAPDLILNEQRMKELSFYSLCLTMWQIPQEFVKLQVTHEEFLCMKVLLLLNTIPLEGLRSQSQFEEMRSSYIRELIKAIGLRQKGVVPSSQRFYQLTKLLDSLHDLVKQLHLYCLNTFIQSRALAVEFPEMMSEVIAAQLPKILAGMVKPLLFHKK

| Compound | IC50 [nM] |
| --- | --- |
| N#Cc1cc(F)cc(-c2ccc3c(c2)C2(CCCCC2)C(S)=N3)c1 [3-fluoro-5-(2'-thioxo-1',2'-dihydrospiro[cyclohexane-1,3'-indol]-5'-yl)benzonitrile] | 7.43 |
| N#Cc1ccc(-c2ccc3c(c2)C2(CCCCC2)C(=S)N3)s1 | 92.5 |
| N#Cc1cccc(-c2ccc3c(c2)C2(CCCCC2)C(=S)N3)c1 | 942 |
| S=C1Nc2ccc(-c3cccc(Cl)c3)cc2C12CCCCC2 | 1120 |
| CC(=O)O[C@]1(C(C)=O)CC[C@H]2[C@@H]3C[C@H](C)C4=CC(=O)CC[C@]4(C)[C@H]3CC[C@@]21C [17-Acetoxy-6alpha-methylprogesterone] | 67.3 |
